Laboratory results as given in US20250144110A1, “COMPOSITIONS OF AUTOPHAGY MODULATING AGENTS AND USES THEREOF” (Washington University, priority 2022, published 2025).

Experiments:
[1] = Liver microsomal stability, mouse; format: in vitro ADME; conditions: mouse liver microsomes; read-out: LM stability Mouse t ½
Text: (§1) As described herein, continued lead optimization afforded potent quinolones.

[2] = system: HD-MSNs expressing the RFP-GFP-LC3 reporter; assay: Tandem RFP-GFP-LC3 reporter in HD-MSNs; format: cell-based, human; conditions: 0.5 μM, PID30, vs DMSO
Procedure: (§2) FIG. 1A-FIG. 1E is an exemplary embodiment showing autophagy activator rescues HD-MSNs from degeneration in accordance with the present disclosure. FIG. 1A depicts the chemical structure of Ex 3. FIG. 1B includes a representative immunoblot (left) for steady state levels of α1-antitrypsin Z variant (ATZ) and β-actin in the HTO/Z cell line model of α1-antitrypsin deficiency after 24 hr treatment with DMSO alone or Ex 3 in DMSO at 0.5 and 2.5 μM and a bar graph showing the normalized intensity (right) calculated from immunoblot images for 0.5 μM versus DMSO control (Individual data plotted, n=4 biological replicates; *p=0.003 by t-test; mean+/−s.e.m). FIG. 1C includes an immunoblot for p62 and GAPDH in HD-MSNs treated with DMSO or 0.5 μM Ex 3 at PID26 (left) and a bar graph showing intensity values were normalized by GAPDH intensities and the relative fold change over DMSO condition was calculated from immunoblot images of three independent HD-MSN lines (right). Each dot represents reprogrammed MSNs from three independent HD-MSN lines. […] FIG. 1E includes example photographs (top) of HD-MSNs treated with DMSO or 0.5 μM Ex 3 (PID 30) expressing the tandem monomeric RFP-GFP-LC3 reporter and a bar graph (bottom) showing quantification of autophagosome (i.e., RFP+, GFP+ puncta) and autolysosome (i.e., RFP+, GFP− puncta) compartments from three independent HD-MSNs. […]

HD-MSNs [3] = assay: Caspase 3/7 activation and Annexin V signal in HD-MSNs; format: cell-based, human; conditions: HD-MSNs at PID30; 0.125, 0.25 or 0.5 uM
Procedure: as §2

HD-MSNs [4] = assay: Autophagic vacuoles by CYTO-ID green in HD-MSNs; format: cell-based, human; conditions: 0.5 μM, PID26, vs DMSO
Procedure: as §2

[5] = system: mHTT inclusion bodies in HD-MSNs; assay: HTT inclusion bodies in HD-MSNs; format: cell-based, human; conditions: 0.5 μM, PID30, vs DMSO
Procedure: as §2

HD-MSNs [6] = assay: HD-MSN death (SYTOX assay); survival of striatal neurons; format: cell-based, human; conditions: treated from PID14 every four days for 16 days
Procedure: as §2

p62/SQSTM1 in HD-MSNs = assay: p62 immunoblot in HD-MSNs; format: cell-based, human; conditions: 0.5 μM, PID26, vs DMSO
Procedure: as §2

[7] = Liver microsomal stability, human; format: in vitro ADME; conditions: human liver microsomes; read-out: LM stability Human t ½
Text: as §1

half-life [1] [h]	Annexin V signal (HD-MSNs [3])	activated Caspase 3/7 signal (HD-MSNs [3])	half-life [7] [h]	Structure (SMILES)	average number of autophagosomes and autolysosomes [2]	number of autophagic vacuoles (CYTO-ID signals) (HD-MSNs [4])	number of mHTT inclusion bodies [5]	HD-MSN death (SYTOX-positive cells) (HD-MSNs [6])	p62/SQSTM1 protein levels (p62/SQSTM1 in HD-MSNs)
0.07	significant reduction	significant reduction		O=c1ccc2c(Cl)cc(Cl)cc2[nH]1 [Ex 3, 5,7-dichloro-1H-quinolin-2-one]	increased the average number of autophagosomes and autolysosomes	increased the number of autophagic vacuoles	reduced the number of mHTT inclusion bodies	significant reduction in HD-MSN death in a dose-dependent manner	decreased p62/SQSTM1 protein levels
> 2.42			> 2.42	O=c1ccc2c(C(F)(F)F)c(-c3ccc(Cl)cn3)ccc2[nH]1 [Ex 97, 6-(5-chloropyridin-2-yl)-5-(trifluoromethyl) quinolin-2 (1H)-one]					
